Five molecules from ChEMBL document CHEMBL6121030, “Asymmetric Synthesis, Structure Determination, and Biologic Evaluation of Isomers of TLAM as PFK1 Inhibitors” (ACS Med Chem Lett, 2025) can be followed below.

A value given as a limit tells only on which side of the number the result lay.

The first test concerns HeLa. The test is described as follows: Effect on mitochondrial respiration in human HeLa cells assessed as increase in OCR/ECAR ratio incubated for 24 hrs by XFe96 extracellular flux analyzer assay. The class given is functional, cell-based.
Consider `O=C(O)[C@H]1C2C=CC(C2)[C@H]1C(=O)N1CCc2c([nH]c3ccccc23)[C@H]1C(F)(F)F` (stereo partly specified), for which the Activity entry is “Active; Significantly Increased”.

Test system in the next test: not listed separately
Description: Inhibition of recombinant PFK1 (unknown origin) extracted from baculovirus-infected Sf9 cells incubated for 45 min by ADP-Glo kinase assay. Also on record: species or system Homo sapiens. (In ADP-Glo the light output rises with the ADP produced.)
For the molecule `O=C(O)[C@@H]1C2C=CC(C2)[C@@H]1C(=O)N1CCc2c([nH]c3ccccc23)[C@H]1C(F)(F)F` (stereo partly specified), the half-inhibitory concentration (IC50) was greater than 100 µM. Still for that read-out and setting: to `O=C(O)[C@H]1C2C=CC(C2)[C@H]1C(=O)N1CCc2c([nH]c3ccccc23)[C@H]1C(F)(F)F` (stereo partly specified) belongs 2.1 µM; to `O=C(O)C1C2C=CC(C2)C1C(=O)N1CCc2c([nH]c3ccccc23)C1C(F)(F)F` (stereo unspecified), 2.7 µM.

For the molecule `O=C(O)[C@@H]1C2C=CC(C2)[C@@H]1C(=O)N1CCc2c([nH]c3ccccc23)[C@@H]1C(F)(F)F` (stereo partly specified), the IC50 amounted to 4.7 µM. On the same count and under the same terms, to `O=C(O)[C@H]1C2C=CC(C2)[C@H]1C(=O)N1CCc2c([nH]c3ccccc23)[C@@H]1C(F)(F)F` (stereo partly specified) belongs 25 µM.

Broadly, the IC50 is the point on the concentration scale where inhibition reaches its midpoint.
